Experimental data: patent publication US8569267B2, “Tetracyclic tetrahydrofuran derivatives containing cyclic amine side chain” (Janssen Pharmaceutica, NV, priority 2005, dated 2013)

Assays:
[1] = target: T1, NET (norepinephrine transporter) (Rattus norvegicus, UniProt Q63380); assay: In vitro determination of NET reuptake inhibition ([3H]Nixosetine binding, rat brain cortex); settings: rat brain cortex; for IC50: read-out: NET pIC50 (converted)
T1 construct: Cortex from rat brain was collected and homogenised; from tissue; host or cells: rat brain cortex
Summary of the method: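 Competition curves and percentage specific binding came from scintillation counting of filter-trapped radioactivity. The membranes were rat cortical homogenate in pH 7.4 Tris buffer with 120 mM NaCl and 5 mM KCl. Test compounds competed with [3H]nisoxetine for binding.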

[2] = target: T2, human cloned 5-HT2A receptor, expressed in L929 cells (Homo sapiens, UniProt P28223); assay: In vitro binding affinity for 5-HT2A receptor ([125I]R91150 radioligand binding); settings: human cloned 5-HT2A receptor in L929 cells, [125I]R91150; for IC50: read-out: 5-HT2A pIC50 (converted)
T2 construct: expressed in transfected cells; host or cells: L929 cells
Summary of the method: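 Competition radioligand binding to human cloned 5-HT2A receptor expressed in L929 cells, using [125I]R91150 with test compound at various concentrations. At equilibrium, receptor-bound radioactivity was separated from free and counted. Affinity reflects inhibition of radioligand binding.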

[3] = target: T3, human cloned 5-HT2C receptor, expressed in CHO cells (Homo sapiens, UniProt P28335); assay: In vitro binding affinity for 5-HT2C receptor ([3H]mesulergine radioligand binding); settings: human cloned 5-HT2C receptor; for IC50: read-out: 5-HT2C pIC50 (converted)
T3 construct: expressed in transfected cells; host or cells: CHO cells
T3 sequence (P28335 33-458): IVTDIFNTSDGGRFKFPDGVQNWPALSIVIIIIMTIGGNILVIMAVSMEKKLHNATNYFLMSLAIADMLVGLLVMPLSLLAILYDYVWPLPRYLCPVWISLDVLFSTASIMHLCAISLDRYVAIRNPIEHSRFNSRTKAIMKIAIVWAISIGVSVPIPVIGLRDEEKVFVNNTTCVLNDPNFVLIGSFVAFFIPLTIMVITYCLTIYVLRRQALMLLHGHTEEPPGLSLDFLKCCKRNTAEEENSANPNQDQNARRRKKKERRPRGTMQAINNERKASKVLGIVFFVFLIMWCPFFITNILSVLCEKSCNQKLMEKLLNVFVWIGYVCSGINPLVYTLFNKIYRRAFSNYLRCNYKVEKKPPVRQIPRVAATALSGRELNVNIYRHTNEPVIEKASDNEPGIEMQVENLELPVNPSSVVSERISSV
Summary of the method: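 Receptor-bound radioligand counted after separation from unbound label once equilibrium is reached. Test compound added across a concentration range to tissue preparation plus radioligand; inhibition of binding reflects affinity and concentration.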

[4] = target: T4, human Dopamine D2L receptor (Homo sapiens, UniProt P14416); assay: In vitro binding affinity for human D2L receptor ([3H]Spiperone binding); settings: human D2L receptor-transfected CHO cell membranes; for IC50: read-out: D2L pIC50 (converted)
T4 construct: expressed in transfected cells; host or cells: CHO cells
Summary of the method: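 Competition curves were expressed as percent specific binding, measured by scintillation counting after filtration onto GF/B filters and ice-cold Tris washes. Test compounds competed with [3H]Spiperone, added from a 2 nmol/L dilution, for 30 min at 37° C on transfected CHO membranes in pH 7.7 Tris-HCl salt buffer. Butaclamol at 10^−6 mol/l final marked non-specific binding.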

T2 sequence (P28223 whole entry): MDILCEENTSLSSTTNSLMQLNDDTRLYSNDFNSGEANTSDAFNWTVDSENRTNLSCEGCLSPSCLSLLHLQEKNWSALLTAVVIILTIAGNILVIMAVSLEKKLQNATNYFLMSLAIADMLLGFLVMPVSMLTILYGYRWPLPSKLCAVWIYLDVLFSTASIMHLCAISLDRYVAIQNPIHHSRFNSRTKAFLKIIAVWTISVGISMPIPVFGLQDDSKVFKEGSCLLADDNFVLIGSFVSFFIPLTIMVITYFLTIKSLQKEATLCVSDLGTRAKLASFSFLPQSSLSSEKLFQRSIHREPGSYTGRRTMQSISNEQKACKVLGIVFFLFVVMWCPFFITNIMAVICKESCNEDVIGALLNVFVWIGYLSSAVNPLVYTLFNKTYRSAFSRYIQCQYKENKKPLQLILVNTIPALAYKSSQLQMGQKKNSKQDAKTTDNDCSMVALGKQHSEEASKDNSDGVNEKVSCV
T1 sequence (Q63380 1-617): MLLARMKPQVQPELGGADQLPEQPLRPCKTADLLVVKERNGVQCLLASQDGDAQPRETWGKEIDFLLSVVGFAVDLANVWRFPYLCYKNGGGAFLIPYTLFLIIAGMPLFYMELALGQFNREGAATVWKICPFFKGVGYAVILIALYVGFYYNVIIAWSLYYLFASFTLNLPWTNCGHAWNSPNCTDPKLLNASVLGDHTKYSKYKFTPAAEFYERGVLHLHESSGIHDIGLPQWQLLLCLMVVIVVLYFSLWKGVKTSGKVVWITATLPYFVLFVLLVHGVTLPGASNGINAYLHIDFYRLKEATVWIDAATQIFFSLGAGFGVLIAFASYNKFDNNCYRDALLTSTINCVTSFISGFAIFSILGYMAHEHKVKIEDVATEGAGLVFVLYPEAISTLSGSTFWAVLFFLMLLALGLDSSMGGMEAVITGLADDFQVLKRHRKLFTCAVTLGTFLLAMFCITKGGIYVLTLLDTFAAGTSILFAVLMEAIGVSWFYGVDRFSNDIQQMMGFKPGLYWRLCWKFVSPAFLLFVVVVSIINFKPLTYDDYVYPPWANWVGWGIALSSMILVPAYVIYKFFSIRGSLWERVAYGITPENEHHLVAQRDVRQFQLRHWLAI
T4 sequence (P14416 whole entry): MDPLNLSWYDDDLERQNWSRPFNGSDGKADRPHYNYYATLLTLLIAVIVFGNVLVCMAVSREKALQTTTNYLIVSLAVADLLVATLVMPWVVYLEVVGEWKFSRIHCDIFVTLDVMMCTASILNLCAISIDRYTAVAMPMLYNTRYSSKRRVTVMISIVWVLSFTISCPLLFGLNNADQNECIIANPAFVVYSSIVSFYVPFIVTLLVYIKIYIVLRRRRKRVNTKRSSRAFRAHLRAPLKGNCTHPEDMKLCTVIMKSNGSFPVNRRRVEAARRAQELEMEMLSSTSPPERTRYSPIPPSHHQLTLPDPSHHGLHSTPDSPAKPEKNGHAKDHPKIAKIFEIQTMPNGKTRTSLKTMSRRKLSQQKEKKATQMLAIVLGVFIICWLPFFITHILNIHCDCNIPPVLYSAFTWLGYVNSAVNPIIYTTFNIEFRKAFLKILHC

NET pIC50 [1] | 5-HT2A pIC50 [2] | 5-HT2C pIC50 [3] | D2L pIC50 [4] | SMILES | IC50 [1] | IC50 [2] | IC50 [3] | IC50 [4]
5.49 | 8.52 | 8.66 | 8.03 | Fc1ccc2c(c1)[C@@H]1O[C@@H](CN3CCc4ccccc4C3)C[C@@H]1c1ccccc1C2.O=C(O)C(F)(F)F [Compound 275] |  |  |  | 
 |  |  |  | O=C(c1ccccc1)N1CCN(CC2CC3c4ccccc4Cc4ccc(F)cc4C3O2)CC1 (stereo not drawn) [Compound 82, [2R-(2α, 3aα, 12bβ)][4-(11-fluoro-3,3a,8,12b-tetrahydro-2H-1-oxa-dibenzo[e,h]-azulen-2-ylmethyl)-piperazin-1-yl]-phenyl-methanone.oxalate (1:1)] | > 10000 nM | 2.14 nM | 3.24 nM | 19.5 nM
 |  |  |  | O=C(O)CC1CN(C[C@H]2C[C@@H]3c4ccccc4Cc4ccc(F)cc4[C@@H]3O2)CCO1 (some centres unmarked) [Compound 134] | 42.7 nM | < 10 nM | 1.38 nM | 41.7 nM
 |  |  |  | OCCC1CCN(C[C@H]2C[C@@H]3c4ccccc4Cc4ccc(F)cc4[C@@H]3O2)CC1 [Compound 154] | > 10000 nM | 0.912 nM | 1.62 nM | 1.35 nM
 |  |  |  | CCNC(=O)N1CCN(C[C@H]2C[C@@H]3c4ccccc4Cc4ccc(F)cc4[C@@H]3O2)CC1 [Compound 86] | 7080 nM | 0.832 nM | 3.02 nM | 55 nM
